Test results published in the supplement of paper PMC10307832.

How the values were obtained:
Assay in all cases: relative viability (nuclei count vs DMSO), 5 days (fraction); higher = more cells survive
[1] = compound: C1CC(C1)(C(=O)O)C(=O)O.[NH2-].[NH2-].[Pt+2] [Carboplatin] + CC(C)C[C@H](NC(=O)[C@H](Cc1ccccc1)NC(=O)c1cnccn1)B(O)O [Bortezomib] (partner 0.002 µM)
Procedure, shortened: (§1)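 A single step with final 0.05% Triton X-100, 1% formaldehyde and 1 ug/ml Hoechst fixed the cells and stained nuclei 5 days after treatment. Lung cancer cell lines in 1536-well plates had been treated by pin tool the day after seeding with one drug alone or a fixed anchor-drug dose plus five library-drug doses (not always all listed) in √10 steps, and nuclei were counted on 4× images. Relative viability is the ratio of nuclei in treated wells to nuclei in vehicle wells, taken as the median of duplicate plates.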

[2] = compound: C1CC(C1)(C(=O)O)C(=O)O.[NH2-].[NH2-].[Pt+2] [Carboplatin] + C[C@]1(O)C[C@@H](c2nc(-c3ccc4ccc(-c5ccccc5)nc4c3)c3c(N)nccn32)C1 [Linsitinib] (partner 1 µM)
Procedure, shortened: as §1

[3] = compound: NS(=O)(=O)OC[C@@H]1C[C@@H](n2ccc3c(N[C@H]4CCc5ccccc54)ncnc32)C[C@@H]1O [MLN4924] + Cc1nc(Nc2ncc(C(=O)Nc3c(C)cccc3Cl)s2)cc(N2CCN(CCO)CC2)n1 [Dasatinib] (partner 0.075 µM)
Procedure, shortened: as §1

[4] = compound: C1CC(C1)(C(=O)O)C(=O)O.[NH2-].[NH2-].[Pt+2] [Carboplatin] + N=C(N)NC(=N)NCCc1ccccc1 [Phenformin] (partner 250 µM)
Procedure, shortened: as §1

Row | Cell Line | relative viability ([1]; first compound 0.08 µM) | relative viability ([1]; first compound 0.253 µM) | relative viability ([1]; first compound 0.8 µM) | relative viability ([1]; first compound 2.53 µM) | relative viability ([1]; first compound 8 µM) | relative viability ([2]; first compound 0.08 µM) | relative viability ([2]; first compound 0.253 µM) | relative viability ([2]; first compound 0.8 µM) | relative viability ([2]; first compound 2.53 µM) | relative viability ([2]; first compound 8 µM) | relative viability ([3]; first compound 0.04 µM) | relative viability ([3]; first compound 0.1265 µM) | relative viability ([3]; first compound 0.4 µM) | relative viability ([3]; first compound 1.265 µM) | relative viability ([3]; first compound 4 µM) | relative viability ([4]; first compound 0.08 µM) | relative viability ([4]; first compound 0.253 µM) | relative viability ([4]; first compound 0.8 µM) | relative viability ([4]; first compound 2.53 µM) | relative viability ([4]; first compound 8 µM)
1 | LU99A | 1.01 | 1.23 | 1.04 | 0.968 | 0.757 | 0.621 | 0.583 | 0.508 | 0.464 | 0.417 | 0.507 | 0.485 | 0.321 | 0.132 | 0.16 | 0.958 | 0.854 | 0.738 | 0.809 | 0.647
2 | NCI-H1299 | 1.07 | 1.01 | 1.07 | 0.982 | 0.902 | 1.02 | 0.993 | 0.953 | 0.965 | 0.956 | – | – | – | – | – | – | – | – | – | –
3 | NCI-H1355 | 1.35 | 1.33 | 1.18 | 1.23 | 1.04 | 0.971 | 0.805 | 0.838 | 0.869 | 0.727 | 0.715 | 0.792 | 0.767 | 0.481 | 0.216 | 0.524 | 0.478 | 0.465 | 0.405 | 0.451
4 | HCC-15 | 1.1 | 1.05 | 0.999 | 0.914 | 0.795 | 0.9 | 0.892 | 0.888 | 0.812 | 0.7 | 0.498 | 0.183 | 0.132 | 0.0695 | 0.0802 | 0.562 | 0.47 | 0.441 | 0.407 | 0.37
5 | LXF-289 | 1.03 | 0.986 | 0.98 | 1.01 | 0.919 | 0.992 | 1.02 | 0.912 | 0.939 | 0.926 | 0.215 | 0.203 | 0.251 | 0.0849 | 0.0735 | 0.566 | 0.584 | 0.519 | 0.539 | 0.502
6 | 201T | 1.18 | 1.11 | 1.13 | 1.14 | 1.06 | 1.06 | 1.04 | 0.976 | 1 | 0.962 | 0.69 | 0.615 | 0.598 | 0.319 | 0.318 | 0.482 | 0.447 | 0.441 | 0.444 | 0.432
7 | HOP-62 | 0.922 | 0.87 | 0.593 | 0.668 | 0.603 | 0.982 | 0.996 | 0.949 | 0.947 | 0.801 | 0.887 | 0.742 | 0.427 | 0.0794 | 0.076 | 0.713 | 0.643 | 0.628 | 0.654 | 0.548
8 | NCI-H1703 | 0.494 | 0.503 | 0.347 | 0.425 | 0.34 | 1.84 | 1.04 | 0.829 | 1.32 | 0.813 | – | – | – | – | – | – | – | – | – | –
9 | NCI-H1975 | 0.345 | 0.462 | 0.462 | 0.419 | 0.307 | 0.894 | 0.986 | 0.999 | 1.02 | 0.903 | 0.39 | 0.385 | 0.483 | 0.678 | 0.324 | 0.437 | 0.43 | 0.437 | 0.413 | 0.394
10 | NCI-H2023 | 1.06 | 1.18 | 1.02 | 0.717 | 0.204 | 0.745 | 0.644 | 0.73 | 0.576 | 0.205 | 0.618 | 0.602 | 0.325 | 0.0611 | 0.0616 | 0.447 | 0.413 | 0.381 | 0.27 | 0.145
11 | EBC-1 | 0.528 | 0.507 | 0.551 | 0.518 | 0.438 | 0.957 | 0.993 | 0.896 | 0.918 | 0.835 | – | – | – | – | – | – | – | – | – | –
12 | COR-L23 | 0.887 | 0.987 | 0.918 | 0.707 | 0.355 | 0.976 | 0.91 | 0.754 | 0.529 | 0.297 | 0.487 | 0.617 | 0.507 | 0.154 | 0.101 | 0.453 | 0.394 | 0.428 | 0.353 | 0.241
13 | NCI-H1793 | – | – | – | – | – | 1.04 | 1.1 | 0.675 | 0.848 | 0.839 | 0.384 | 0.366 | 0.408 | 0.345 | 0.325 | 0.444 | 0.496 | 0.289 | 0.35 | 0.405
14 | A549 | – | – | – | – | – | 0.715 | 0.717 | 0.666 | 0.522 | 0.446 | – | – | – | – | – | 0.186 | 0.193 | 0.16 | 0.112 | 0.073
15 | CAL-12T | 1.28 | 0.826 | 0.972 | 1.07 | 0.911 | 0.803 | 0.913 | 0.838 | 0.809 | 0.797 | 0.371 | 0.336 | 0.332 | 0.143 | 0.105 | 0.56 | 0.584 | 0.591 | 0.534 | 0.557
16 | NCI-H1993 | 1.14 | 1.16 | 0.915 | 0.928 | 0.908 | 0.773 | 0.798 | 0.779 | 0.817 | 0.701 | 0.622 | 0.524 | 0.557 | 0.491 | 0.51 | 0.542 | 0.498 | 0.467 | 0.477 | 0.499
17 | ChaGo-K-1 | 1.08 | 0.837 | 0.916 | 0.786 | 0.406 | – | – | – | – | – | 0.414 | 0.376 | 0.323 | 0.184 | 0.17 | 0.459 | 0.508 | 0.467 | 0.381 | 0.392
18 | SW 900 | – | – | – | – | – | – | – | – | – | – | 0.51 | 0.433 | 0.576 | 0.294 | 0.139 | 0.713 | 0.561 | 0.608 | 0.431 | 0.414
19 | NCI-H2342 | – | – | – | – | – | – | – | – | – | – | 0.343 | 0.344 | 0.339 | 0.354 | 0.355 | 0.759 | 0.709 | 0.616 | 0.638 | 0.615
